The test system of data set [1] is Cas12a gRNA target sites on Glycine max A3335 chromosome 13. Description: gRNA/LbCas12a target site editing in stably transformed soybean plants (AmpSeq). Format: in vivo. Conditions: plants with target site edits / plants examined x 100. The source says: CRISPR Cas12a-based cleavage of DNA sequences requires the use of gRNAs that can target specific sequences (target sites) comprising a Cas12a-recognizable protospacer adjacent motif (PAM) sequence so as to facilitate Cas12a enzymatic activity and DNA cleavage. The 10 cM window was scanned for the presence of the LbCas12a-preferred PAM (TTTV, where “V” is A, C, or G) that were unique in the genome (i.e., that only occur once in the genome). This set was additionally filtered so as to identify gRNA target sites that were more than 2 kb from a coding region, more than 1 kb from a small RNA hotspot, and comprised 700 nucleotides (nt) of unique sequence on either side. A suite of genomic target sites was identified from this analysis and 12 were chosen for testing based on additional factors like GC content, and absence of potential off-targets. PAM sites are italicized and shown in bold. The corresponding 23 bp gRNA spacer (SP) sequences are also identified and represented by SEQ ID NOs:223-234.
Three Agrobacterium T-DNA vectors were designed to evaluate gRNA and LbCas12a nuclease mediated cleavage at the selected target sites. Each T-DNA vector contained 3 cassettes between the left and right borders on the T-DNA: an aadA selection marker cassette, an LbCas12a Cas12a cassette, and a multiplexed gRNA cassette. The aadA and LbCas12a cassettes were common across the three vectors. The aadA expression cassette contained the aadA gene (also known as Tn7 adenylyltransferase (AAD(3″)) from E. coli under the control of a constitutive promoter, and targeted the aadA protein to the chloroplast for selection of transgenic events resistant to spectinomycin and streptomycin. The LbCas12a cassette comprised a plant codon optimized LbCas12a (SEQ ID NO:236) flanked by the same nuclear localization signal sequence (NLS) at the 5′ and 3′ ends (SEQ ID NO:235) and a 3′UTR sequence (SEQ ID NO:237) derived from a Medicago truncatula gene. The gene cassette comprising NLS-Cas12aLbCas12a-NLS sequence was fused 3′ to an ATGGCG sequence and operably linked to a chimeric promoter sequence (SEQ ID NO:238) comprising an enhancer region from the Banana Streak Virus (Strain Acuminata Vietnam) and promoter with the 5′ UTR region from the Dahlia mosaic virus.
The guide RNA cassette in vector pG947 comprised a Glycine max Pol III promoter operably linked to a transcribable sequence comprising in order a DR sequence (SEQ ID NO:239), spacer SP10 (SEQ ID NO:232), DR (SEQ ID NO: 239), spacer SP11 (SEQ ID NO:233), DR (SEQ ID NO: 239), spacer SP2 (SEQ ID NO:224), DR (SEQ ID NO: 239), spacer SP12 (SEQ ID NO:234), DR and a poly (T)7 terminator. The guide RNA cassette in vector pG949 comprised a Glycine max Pol III promoter operably linked to a transcribable sequence comprising in order a DR sequence (SEQ ID NO:239), spacer SP9 (SEQ ID NO:231), DR (SEQ ID NO: 239), spacer SP7 (SEQ ID NO:229), DR (SEQ ID NO: 239), spacer SP1 (SEQ ID NO:223), DR (SEQ ID NO: 239), spacer SP5 (SEQ ID NO:227), DR (SEQ ID NO: 239) and a poly (T)7 terminator. The guide RNA cassette in vector pG950 comprised a Glycine max Pal III promoter operably linked to a transcribable sequence comprising in order a DR sequence (SEQ II) NO:239), spacer SP3 (SEQ ID NO:225), DR (SEQ ID NO: 239), spacer SP6 (SEQ ID NO:228), DR (SEQ ID NO: 239), spacer SP4 (SEQ ID NO:226), DR (SEQ ID NO: 239), spacer P8 (SEQ ID NO:230), DR and a poly (T)7 terminator.
The three plant transformation vectors were introduced into soybean seed-derived embryo explants through Agrobacterium-mediated transformation using methods known in the art. Transformed plants were selected on spectinomycin. Genomic DNA was extracted from leaf samples harvested from regenerated plantlets. Each targeted region was amplified by PCR. […]

Data set [2] has as its system wild-type control in the same transformation germplasm. Put plainly: Controlled environment PPO herbicide tolerance trial, wild-type control. Format: in vivo, Glycine max. The conditions noted are these: 1× rate, sprayed at V3 stage, greenhouse, rated 11 days after herbicide applications. The protocol: (§1) An efficacy trial was conducted in the controlled environment to evaluate tolerance of event Gm_CSM63717 to various PPO herbicides. The experiment included the lead event (Gm_CSM63717) and a wild-type control in the same transformation germplasm, and consisted of nine individual PPO herbicide treatments, all at 1× rates. These included butafenacil, flumioxazin, fomesafen, lactofen, pyroflufen, saflufenacil, Voraxor (trifludimoxazin and salflufenacil), sulfentrazone, cyclopropylmethyl (2-{2-chloro-4-fluoro-5-[3-methyl-2,6-dioxo-4-(trifluoromethyl)-3,6-dihydropyrimidin-1(2H)-yl]phenoxy}phenoxy)acetate, and an untreated control. The herbicide formulations contained 1% (v/v) Crop Oil Concentrate (COC, Prime Oil, Winfield Solutions, LLC, P. O. Box 64589, St. Paul, MN 55164-0589) for sulfentrazone, fomesafen, lactofen, or 1% (v/v) methylated seed oil (Destiny® HC, Winfield Solutions, LLC, P. O. Box 64589, St. Paul, MN 55164-0589) for flumioxazin, saflufenacil, Voraxor, pyroflufen, butafenacil, and cyclopropylmethyl (2-{2-chloro-4-fluoro-5-[3-methyl-2,6-dioxo-4-(trifluoromethyl)-3,6-dihydropyrimidin-1(2H)-yl]phenoxy}phenoxy)acetate. There were 10 replications per treatment. The plants were grown under standard greenhouse conditions, and were sprayed with each herbicide at V3 stage, and were visually rated for herbicide injury 11 days after herbicide applications.

In data set [3] the test system is soybean event Gm_CSM63717. Description: Controlled environment PPO herbicide tolerance trial, event Gm_CSM63717. Format: in vivo, Glycine max. The conditions noted are these: 1× rate, sprayed at V3 stage, greenhouse, rated 11 days after herbicide applications. On the procedure:
as §1

We go through twelve compounds from patent US20250197952A1, “TRANSGENIC SOYBEAN EVENT GM_CSM63717 AND COMPOSITIONS AND METHODS FOR DETECTION AND USES THEREOF” (Monsanto Technology LLC, priority 2023, published 2025).

On to “GmTS7: LbCas12a gRNA for target site GmTS7 (SEQ ID NO:217), spacer SP7 (SEQ ID NO:229) (guide CCTATATCTGTTTCAGTGATTGC; expressed or natural sequence)”, for which, in data set [1], the “Target Editing Rate (%)” value amounted to 23.8%. As for “GmTS2: LbCas12a gRNA for target site GmTS2 (SEQ ID NO:212), spacer SP2 (SEQ ID NO:224) (guide CTTCCTGAGGAAATTTGGTTTCA; expressed or natural sequence)”, the “Target Editing Rate (%)” value in data set [1] came out at 7.3%. On the same count and under the same terms, the result for “GmTS5: LbCas12a gRNA for target site GmTS5 (SEQ ID NO:215), spacer SP5 (SEQ ID NO:227) (guide CTAAATCGCATAGCTTGTGTGTT; expressed or natural sequence)” reads 14.3%; that for “GmTS10: LbCas12a gRNA for target site GmTS10 (SEQ ID NO:220), spacer SP10 (SEQ ID NO:232) (guide ATCAAAGCTAAAGCATAAGCATC; expressed or natural sequence)”, 45.1%. Turning to “GmTS6: LbCas12a gRNA for target site GmTS6 (SEQ ID NO:216), spacer SP6 (SEQ ID NO:228) (guide CATGCTGTCATCATCTGTTCACT; expressed or natural sequence)”, in data set [1], the “Target Editing Rate (%)” value turned out to be 17.9%. As for “GmTS1: LbCas12a gRNA for target site GmTS1 (SEQ ID NO:211), spacer SP1 (SEQ ID NO:223) (guide CAAACATCACATGGCCGGATAAG; expressed or natural sequence)”, the “Target Editing Rate (%)” value in data set [1] is on record as 2.4%. For “GmTS11: LbCas12a gRNA for target site GmTS11 (SEQ ID NO:221), spacer SP11 (SEQ ID NO:233) (guide GCTCGCTATATATATGTGTCACA; expressed or natural sequence)”, in data set [1], the “Target Editing Rate (%)” value is listed as 48.8%. Regarding “GmTS3: LbCas12a gRNA for target site GmTS3 (SEQ ID NO:213), spacer SP3 (SEQ ID NO:225) (guide GCAAGATCCGCTGCCTGCTTGAG; expressed or natural sequence)”, the “Target Editing Rate (%)” value in data set [1] is given as 8.3%. Regarding “GmTS4: LbCas12a gRNA for target site GmTS4 (SEQ ID NO:214), spacer SP4 (SEQ ID NO:226) (guide CCTTGATTTGGATTAACCCGCCA; expressed or natural sequence)”, the “Target Editing Rate (%)” value in data set [1] was 8.3%. Same read-out and setting: under “GmTS12: LbCas12a gRNA for target site GmTS12 (SEQ ID NO:222), spacer SP12 (SEQ ID NO:234) (guide GACATATATGCTATATCATTCTC; expressed or natural sequence)” stands 72%. For `Cn1c(C(F)(F)F)cc(=O)n(-c2cc(Oc3ccccc3OCC(=O)OCC3CC3)c(Cl)cc2F)c1=O` [cyclopropylmethyl (2-{2-chloro-4-fluoro-5-[3-methyl-2,6-dioxo-4-(trifluoromethyl)-3,6-dihydropyrimidin-1(2H)-yl]phenoxy}phenoxy)acetate], in data set [2], the “Injury (%) WT Control” value is 89%. Further, in data set [3], the “Injury (%) Gm_CSM63717” value turned out to be 0%.

“GmTS9: LbCas12a gRNA for target site GmTS9 (SEQ ID NO:219), spacer SP9 (SEQ ID NO:231) (guide CGGAGTAGCAGAGAGGAGATTCG; expressed or natural sequence)”: in data set [1], the “Target Editing Rate (%)” value was 36.9%.
